Kd data for 2 molecules are collected here from publication PMC3552018 (Insect molecular biology, 2012).

For this assay, the target named is T1, LUSH (Drosophila melanogaster, UniProt O02372).
T1 sequence (O02372 30-153): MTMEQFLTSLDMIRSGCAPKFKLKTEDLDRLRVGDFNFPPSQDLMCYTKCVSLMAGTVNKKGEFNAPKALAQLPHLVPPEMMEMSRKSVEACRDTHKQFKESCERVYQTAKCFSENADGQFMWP
It is filed as binding.

For `CCC/C=C\C=C\CCCCCCCCCO` [bombykol], the Kd stood at 215 nM.
Molecule `CCCCCC/C=C\CCCCCCCCCCOC(C)=O` [cVA, 11-cis vaccenyl acetate] registered a Kd of 108 nM.

By Kd is commonly meant the free concentration of one partner at which half of the binding sites on the other are occupied at equilibrium, for simple one-to-one binding. Low readings indicate higher affinity, high ones lower affinity.
